These results are taken from patent publication US20020111314A1, “Novel stimulation of gene expression and protein synthesis of heat shock protein 72/73 (Hsp 70)” (The Trustees of Columbia University, priority 1995, published 2002).

The assay has as its system Hsp70. The assay can be described thus: Hsp70 turnover (pulse-chase) in HepG2 cells. In kind it is cell-based, human. The procedure: FIGS. 4A-4B: Effects of ALLN on Hsp70 turnover and synthesis rates in HepG2 cells. Confluent culture dishes were preincubated for 4 hours with serum-free MEM containing either 1.5% BSA alone (Control) or BSA plus 40 μg/ml of ALLN (ALLN). (A) The preincubated cells were radiolabeled with 3H-leucine (150 μCi/ml) in serum-free, leucine-free medium with/without ALLN for 20 min., washed 3 times with medium free of isotope and then chased in serum-free medium containing BSA with/without ALLN for up to 20 hours. At the indicated time points, cells were harvested and lysed. Samples were immediately stored in a −80° C. freezer. Immunoprecipitation of Hsp70 was performed as described in FIG. 1. […]
FIGS. 8A-8C: Effects of ALLN on Hsp70 synthesis and turnover rates in HepG2 cells. […] Immunoprecipitates were analyzed on SDS-PAGE and fluorography (A) and also aliquoted for scintillation counting (B). […]
Since ALLN is a cysteine protease inhibitor, the possibility that protection of Hsp70 from proteolytic degradation accounted for the sharp increase in Hsp70 induced by ALLN was tested (Rock, et al., 1994; Ward, et al., 1995; Hiwasa, et al., 1990; Inoue, et al., 1991; and Sakata, et al., 1993). To determine whether ALLN stabilizes Hsp70, the turnover rate of radiolabeled Hsp70 in the presence or absence of ALLN (40 μg/ml) was measured in a pulse-chase experiment. […]

Square brackets hold non-standard residues; d marks the D form. Peptide text beside a SMILES is read from it. Nle = CCCC[C@H](N)C(=O)O

As for `CCCC[C@@H](C=O)NC(=O)[C@H](CC(C)C)NC(=O)[C@H](CC(C)C)NC(C)=O` [ALLN, N-acetyl-leucyl-leucyl-norleucinal] (Ac-Leu-Leu-[Nle]-aldehyde), for the setting “ALLN 40 μg/ml vs without ALLN”, the “increase in the half-life of Hsp70” value is reported as 3-4 fold. In addition, where the note is “ALLN 40 μg/ml, pulse-chase”, the “half life of newly synthesized Hsp70 in the presence of ALLN” value is reported as “about 6 hours”.
